In patent US10072034B2, “Kinase inhibitors” (Respivert Limited, priority 2016, dated 2018) one finds IC50 data, which are given here for one molecule.

In one experiment the target is p38 MAPKα (Homo sapiens (Human), UniProt Q16539). Nature of the experiment: p38 MAPKα enzyme inhibition (FRET, Z-LYTE; Method 2). It counts as biochemical. How it is done: The enzyme inhibitory activities of compounds disclosed herein are determined by FRET using synthetic peptides labelled with both donor and acceptor fluorophores (Z-LYTE, Invitrogen Ltd., Paisley, UK).
The inhibitory activities of test compounds against the p38 MAPKα isoform (MAPK14: Invitrogen) are evaluated indirectly by determining the level of activation/phosphorylation of the down-stream molecule, MAPKAP-K2. The p38 MAPKα protein (80 ng/mL, 2.5 μL) is mixed with the test compound (2.5 μL of either 4 μg/mL, 0.4 μg/mL, 0.04 μg/mL or 0.004 μg/mL) for 2 hr at RT. […] The mixture is incubated for 1 hr at RT. Development reagent (protease, 5 μL) is added for 1 hr prior to detection in a fluorescence microplate reader (Varioskan® Flash, ThermoFisher Scientific).
This method follows the same steps as Method 1 above, but utilises a higher concentration of the p38 MAPKα protein (2.5 μL of 200 ng/mL protein instead of 2.5 μL of 80 ng/mL protein) for mixing with the test compound (tested at either 1 μg/mL, 0.1 μg/mL, 0.01 μg/mL or 0.001 μg/mL).
In all cases, the site-specific protease cleaves non-phosphorylated peptide only and eliminates the FRET signal. Phosphorylation levels of each reaction are calculated using the ratio of coumarin emission (donor) over fluorescein emission (acceptor), for which high ratios indicate high phosphorylation and low ratios indicate low phosphorylation levels. […]

Experiment [1] deals with IFN gamma release in PBMCs. Nature of the experiment: IFN gamma release in CD3/CD28 stimulated PBMC cells (assay (c)). It counts as cell-based. To be noted: Homo sapiens, read-out: IC50 Values in PBMCs IFNγ. As for the experimental part: PBMCs from healthy subjects are separated from whole blood using a density gradient (Lymphoprep, Axis-Shield Healthcare). Cells are added to a 96 well plate pre-coated with a mixture of CD3/CD28 monoclonal antibodies (0.3 μg/mL eBioscience and 3 μg/mL BD Pharmingen respectively). Compound at the desired concentration is then added to the wells and the plate left for 3 days under normal tissue culture conditions. Supernatants are harvested and IL-2 and IFN gamma release determined by Sandwich ELISA (Duo-set, R&D System). The IC50 is determined from the dose response curve.

p38 MAPKα, sequence (Q16539 whole entry, canonical isoform): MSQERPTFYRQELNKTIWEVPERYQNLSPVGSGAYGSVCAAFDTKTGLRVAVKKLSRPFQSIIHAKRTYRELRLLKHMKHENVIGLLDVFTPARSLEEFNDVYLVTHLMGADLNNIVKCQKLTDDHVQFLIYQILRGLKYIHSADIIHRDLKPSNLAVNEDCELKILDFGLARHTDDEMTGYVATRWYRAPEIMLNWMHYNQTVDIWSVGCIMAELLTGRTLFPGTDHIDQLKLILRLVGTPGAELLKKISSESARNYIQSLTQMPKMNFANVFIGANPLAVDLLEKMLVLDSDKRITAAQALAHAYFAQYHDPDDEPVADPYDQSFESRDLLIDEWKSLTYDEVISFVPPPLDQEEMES

A word on the IC50: it is the midpoint of a concentration-inhibition curve. `COc1cc(Nc2cc(Oc3ccc(NC(=O)Nc4cc(C(C)(C)C)cc(NS(C)(=O)=O)c4OC)c4ccccc34)ccn2)cc(OCCOCCOCC(=O)O)c1` [Example 3]: the IC50 against p38 MAPKα turned out to be 23 nM; in experiment [1], 31.8 nM.
